How the values were obtained:
[1] = biological target: T1, Cripto protein (Mus musculus, UniProt P51865); assay: ELISA binding of recombinant Cripto to plate-coated peptide; details: peptide coated at 50 μM; Cripto 50 to 200 ng/ml
T1 construct: made in house
Experimental: (§1) To evaluate the binding of Cripto BP to either Cripto or ALK-4 receptor, BP or control peptides (CP; 50 μM) were coated on the surface of a 96-well microtiter plate and incubated over night at 4° C. Wells were washed five times with PBS Tween (PBT) and the aspecific sites blocked for 3 h at RT with 1% Bovine Serum Albumin (BSA) in PBS, 180 μL/well. Wells were washed as above, and the recombinant form of either ALK-4-humanFc chimeric receptor or Cripto protein in PBT were added at the indicated concentrations and incubated for 1 h at 37° C. followed by 1 hr at RT. After washing with PBT, to evaluate the binding of Cripto to 26-23-23, rabbit anti-Cripto IgG (6 μg/ml) were added to the plates and incubated 1 h at 37° C. and 1 hr at RT. After washing in PBT, a goat anti-rabbit […] (Santa Crutz) was added to the plate (0.3 μg/ml) and incubated 1 h at RT. Finally, the plate was developed as reported above. To evaluate the binding of ALK4 to 26-23-23, the extracellular domain of ALK-4 receptor fused to human Fc (R&D Systems) was added at the indicated concentrations and a goat anti-human Fc (Jackson ImmunoResearch; 1:1000) was used.

[2] = biological target: T2, ALK-4 receptor (Homo sapiens, UniProt P36896); assay: ELISA binding of ALK-4 receptor to plate-coated peptide; details: peptide coated at 50 μM; ALK-4 50 to 200 ng/ml
T2 construct: the extracellular domain of ALK-4 receptor fused to human Fc (R&D Systems); purchased R&D Systems
T2 sequence (P36896 24-126 limits assumed): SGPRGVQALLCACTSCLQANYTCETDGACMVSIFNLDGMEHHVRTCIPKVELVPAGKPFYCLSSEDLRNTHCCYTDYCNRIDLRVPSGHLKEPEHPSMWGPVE
Experimental: as §1

[3] = system: wild-type EBs; assay: QRT-PCR of cardiac and neuronal markers in EBs; type: cell-based, mouse; details: 25 μM peptide, 13 day-old EBs
Experimental: Total RNAs from 13 day-old EBs was extracted with TRIzol kit (Life Technologies Inc.) according to manufacturer's instructions. One microgram of total RNA was used for cDNA synthesis with SuperScript II reverse transcriptase (Life Technologies Inc.) and random hexamers. Quantitative Real time PCR was performed using SYBR Green PCR master mix (EuroClone), according to manufacturer's instructions. The primers used are described in Table S2.

[4] = system: Parkinsonian rats; assay: Amphetamine-induced rotational behaviour of ESC-grafted Parkinsonian rats; type: in vivo, rat; details: for improvement in amphetamine-induced rotations: pre-treated ESCs + peptide infusion
Description: Thirty-seven adult male Sprague Dawley rats (250-350 g; from ARC, Australia) were housed and treated according to the guidelines of the Australian and Howard Florey Institute animal ethics committee (07-030). Animals received unilateral stereotaxic injections of 6-OHDA into the substantia nigra pars compacta (SNpc) to create a complete lesion of the midbrain DA neurons, as previously described^29. Lesioned animals were selected for transplantation based on their response to amphetamine induced rotational behaviour as previously described^29. Animals making greater than 6 rotations/min (lesion greater than 80%) were selected for grafting.
Two days prior to grafting animals began cyclosporine-A immune suppression (10 mg/kg). Fourteen days post-lesioning selected animals (determined by behavioural rotations) were again anesthetized and stereotaxically injected with 1 μl of cell suspension at each of the 4 sites as previously described^29. Stereotaxic coordinates of 1st & 2nd Injection (from bregma): anterior 0.2 mm, lateral 3.0 mm, ventral 4.5 and 5.0 mm; 3rd & 4th Injection, anterior 1.0 mm, lateral 2.5 mm, ventral 4.5 and 5.0 mm; incisor bar 0 mm^57). ESCs were differentiated as outlined in FIG. 7a. In brief, ESC colonies were dissected away from the stromal feeder layer and dissociated using collagenase/dispase with agitation (700 μg/ml, Roche, for 20 min, 80 rpm). Cells were subsequently resuspended at a density of 3,000 cells/μl ready for grafting. Five rats received Sham injections (4 μl N2 media, 1 μl/site), 16 rats received a total of 12,000 ESCs (4×1 μl grafts) pre-treated with the Control peptide (of which 9 of these animals also received infusion of the Control peptide) and a further 16 rats received grafts pretreated with the Cripto blocking peptide (9 animals receiving infusion of the Cripto BP).
The peptide infusion was performed by implantation of a cannula into the striatum (Alzet brain infusion kit) connected to a subcutaneously placed osmotic minipump (Alzet) prefilled with either CP or Cripto BP. Implantation was performed at the same time as the cell grafting. Cannula coordinates: anterior 0.5 mm, lateral 1.5 mm, ventral 5.0 mm; incisor bar 0 mm^57. The osmotic pump was capable of continuously delivering the peptide over a 3 weeks period (75 μM, 0.25 μl/hr) upon which time the animals were briefly anaesthetized with isoflurane and the pump removed through a small incision over the scapular region.

T1 sequence (P51865 18-156 limits assumed): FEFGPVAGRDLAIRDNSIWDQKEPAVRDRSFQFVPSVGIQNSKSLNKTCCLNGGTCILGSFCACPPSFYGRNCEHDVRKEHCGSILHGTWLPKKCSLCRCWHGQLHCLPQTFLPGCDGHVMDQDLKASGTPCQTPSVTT

C[S+]([O-])CCC(N)C(=O)N[C@@H](CSCc1ccccc1)C(=O)N[C@@H](CSCc1ccccc1)C(=O)N[C@@H](CCCCNC(=O)[C@H](CSCc1ccccc1)NC(=O)[C@H](CSCc1ccccc1)NC(=O)[C@@H](N)CC[S+](C)[O-])C(=O)N[C@@H](CCCCNC(=O)[C@H](CCCCNC(=O)[C@H](CSCc1ccccc1)NC(=O)[C@H](CSCc1ccccc1)NC(=O)[C@@H](N)CC[S+](C)[O-])NC(=O)[C@H](CSCc1ccccc1)NC(=O)[C@H](CSCc1ccccc1)NC(=O)[C@@H](N)CC[S+](C)[O-])C(=O)NCC(=O)O (stereo partly drawn) [Cripto BP]
binding of recombinant Cripto to immobilized peptide [1]: specifically recognized the immobilized Cripto BP, in a dose-dependent manner
binding of ALK-4 receptor to immobilized peptide [2]: not ALK-4 specifically recognized
expression of cardiac specific marker MLc2v [3]: reduced
expression of midbrain dopaminergic neuron markers (Pitx3, Wnt5a, Shh, TH, DAT) [3]: showed expression of markers characteristic of developing midbrain dopaminergic neurons
expression of pan neuronal marker NFM [3]: induced
functional improvement in rotational behaviour compared to shams ([4]; 12,000 ESCs pre-treated, without infusion): significant reductions in amphetamine induced rotational behaviour as early as week 2 post-grafting
improvement in amphetamine-induced rotations [4]: significantly improved functional recovery
improvement in amphetamine-induced rotations ([4]; mean±SD): 69.6±8.4%
reduction in amphetamine induced rotational behaviour ([4]; pre-treated ESCs without infusion, 8 weeks postgrafting, mean±SD): 66.2±8.4%

From patent US20110028401A1, “CRIPTO BLOCKING MOLECULES AND THERAPEUTIC USES THEREOF” (CONSIGLIO NAZIONALE DELLE RICERCHE, priority 2009, published 2011)
